The results in this text go back to patent US20080027063A1, “IMIDAZOPYRAZINES AS PROTEIN KINASE INHIBITORS” (Schering Corporation, priority 2006, published 2008).

The test system of this assay is CHK1. The experiment in a line: CHK1 SPA Assay. To be noted: recombinant His-CHK1, CDC25C biotinylated peptide, 1 μM ATP, 2 hours, room temperature. In kind it is biochemical. The procedure: CHK1 SPA Assay An in vitro assay was developed that utilizes recombinant His-CHK1 expressed in the baculovirus expression system as an enzyme source and a biotinylated peptide based on CDC25C as substrate (biotin-[…]). Materials and Reagents: 1) CDC25C […]-term Biotinylated peptide substrate (25 mg), stored at -20° C., Custom Synthesis by Research Genetics: biotin-[…] 2) His-CHK1 In House lot P976, 235 μg/mL, stored at -80° C. 3) D-PBS (without CaCl and MgCl): GIBCO, Cat.# 14190-144 4) SPA beads: Amersham, Cat.# SPQ0032: 500 mg/vial • Add 10 mls of D-PBS to 500 mg of SPA beads to make a working concentration of 50 mg/ml. Store at 4° C. Use within 2 week after hydration. 5) 96-Well White Microplate with Bonded GF/B filter: Packard, Cat.# 6005177 6) Top seal-A 96 well Adhesive Film: Perkin Elmer, Cat.# 6005185 7) 96-well Non-Binding White Polystyrene Plate: Corning, Cat. # 6005177 8) MgCl2: Sigma, Cat.# M-8266 9) DTT: Promega, Cat.# V3155 10) ATP, stored at 4° C.: Sigma, Cat.# A-5394 11) γ^33P-ATP, 1000-3000 Ci/mMol: Amersham, Cat.# AH9968 12) NaCl: Fisher Scientific, Cat.# BP358-212 13) H3PO4 85% Fisher, Cat.#A242-500 14) Tris-HCL pH 8.0: Bio-Whittaker, Cat. # 16-[…] 15) Staurosporine, 100 ug: CALBIOCHEM. Cat. # 569397 16) Hypure Cell Culture Grade Water, 500 mL: HyClone, Cat.# SH30529.02 Reaction Mixtures: 1) Kinase Buffer: 50 mM Tris pH 8.0; 10 mM MgCl2; 1 mM DTT 2) His-CHK1, In House Lot P976, MW 30 KDa, stored at -80° C. 6 nM is required to yield positive controls of 5,000 CPM. For 1 plate (100 rxn): dilute 8 μL of 235 ug/mL (7.83 uM) stock in 2 mL Kinase Buffer. This makes a 31 nM mixture. Add 20 μL/well. This makes a final reaction concentration of 6 nM. 3) CDC25C Biotinylated peptide. Dilute CDC25C to 1 mg/mL (385 uM) stock and store at -20° C. For 1 plate (100 rxn): dilute 10 μL of 1 mg/mL peptide stock in 2 ml Kinase Buffer. This gives a 1.925 uM mix. Add 20 μL/rxn. This makes a final reaction concentration of 385 nM 4) ATP Mix. For 1 plate (100 rxn): dilute 10 μL of 1 mM ATP (cold) stock and 2 μL fresh P33-ATP (20 μCi) in 5 ml Kinase Buffer. This gives a 2 uM ATP (cold) solution; add 50 μl/well to start the reaction. Final volume is 100 μl/rxn so the final reaction concentrations will be 1 uM ATP (cold) and 0.2 μCi/reaction. 5) Stop Solution: For 1 plate add: To 10 mL Wash Buffer 2 (2M NaCl 1% H3PO4): 1 mL SPA bead slurry (50 mg); Add 100 μL/well 6) Wash buffer 1: 2 M NaCl 7) Wash buffer 2: 2 M NaCl, 1% H3PO4 Assay Procedure: [table] 1) Dilute compounds to desired concentrations in water/10% DMSO-this will give a final DMSO concentration of 1% in the reaction. Dispense 10 μl/rxn to appropriate wells. Add 10 μL 10% DMSO to positive (CHK1+CDC25C+ATP) and negative (CHK1+ATP only) control wells. […]
The term IC50 denotes the concentration that gives 50% inhibition. Consider `Nc1ncc(-c2cc3ccccc3s2)n2cc(C3CCCNC3)nc12` (stereo not shown), for which the IC50 is 0.187 µM.

Turning to `Cc1ccc(-c2cnc(N)c3nc(C4CCCNC4)cn23)s1` (stereo not shown), the IC50 stood at 0.216 µM.

On to `Nc1ncc(-c2cc(-c3ccccc3)cs2)n2cc([C@H]3CCCNC3)nc12`, for which the IC50 came to 0.139 µM.

For `Nc1ncc(-c2cc(-c3ccc(Cl)cc3)cs2)n2cc([C@H]3CCCNC3)nc12`, the IC50 came to 0.084 µM.
